Source: patent US10640532B2, “Crystal of reduced glutathione” (University Public Corporation Osaka, priority 2015, dated 2020)
Like-named read-outs stand apart in the source and are kept apart here.

Details: storage 40° C., 75% relative humidity
Procedure: The amorphous solid of a reduced glutathione-sodium salt obtained in (1) of Example 1, and the final crystal of a reduced glutathione-sodium salt obtained in Example 1 were compared for hygroscopicity under the following conditions.
Storage conditions: 40° C., 75% relative humidity (adjusted with saturated brine)
Measurement conditions: About 0.3 g of a sample was weighed with a precision balance, and charged into a plastic container. After being stored under the foregoing storage conditions, the sample was weighed, and the percentage of weight change was calculated.
The measured sample weight at each time point is relative to the 100% initial weight at the start of testing. In table 5, the symbol “-” means no measurement.

Row | weight (%) relative to 100% initial weight (elapsed time 0 h) | weight (%) relative to 100% initial weight (elapsed time 2 h) | weight (%) relative to 100% initial weight (elapsed time 10 h) | weight (%) relative to 100% initial weight (elapsed time 20 h) | weight (%) relative to 100% initial weight (elapsed time 48 h) | weight (%) relative to 100% initial weight (elapsed time 0.25 h) | weight (%) relative to 100% initial weight (elapsed time 4 h) | Structure (SMILES) | hygroscopicity / preservation stability compared with the amorphous solid (up to 48 h)
1 | 100% | 100.7% | 101.9% | 102% | 102.9% | – | – | N[C@@H](CCC(=O)N[C@@H](CS)C(=O)NCC(=O)O)C(=O)[O-].[Na+] [Crystal, reduced glutathione-sodium salt] | less likely to absorb moisture than the amorphous solid
2 | 100% | 104.1% | 110.2% | 117.3% | 125.8% | 100.7% | 106.2% | N[C@@H](CCC(=O)N[C@@H](CS)C(=O)NCC(=O)O)C(=O)[O-].[Na+] [Amorphous, reduced glutathione-sodium salt] | –
